Measured values from US6737383B1, “Herbicidal oxadiazolidines” (priority 1999, dated 2004).

Experiments:
bedstraw = assay: Test B pre/postemergence bedstraw; assay type: in vivo, Galium aparine
Procedure, shortened: (§1)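 Herbicidal effect was estimated by eye on a ten-point control scale after plants spent twelve to sixteen days in a greenhouse following soil or foliar treatment. Foliar sprays targeted plants at one to four leaves; all doses were formulated in a non-phytotoxic solvent with surfactant.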

blackgrass = assay: Test B pre/postemergence blackgrass; assay type: in vivo, Alopecurus myosuroides
Procedure, shortened: as §1

surinam grass = assay: Test B pre/postemergence surinam grass; assay type: in vivo, Brachiaria decumbens
Procedure, shortened: as §1

cocklebur = assay: Test B pre/postemergence cocklebur; assay type: in vivo, Xanthium strumarium
Procedure, shortened: as §1

giant foxtail = assay: Test B pre/postemergence giant foxtail; assay type: in vivo, Setaria faberii
Procedure, shortened: as §1

morningglory = assay: Test B pre/postemergence morningglory; assay type: in vivo, Ipomoea hederacea
Procedure, shortened: as §1

pigweed = assay: Test B pre/postemergence pigweed; assay type: in vivo, Amaranthus retroflexus
Procedure, shortened: as §1

rape = assay: Test B pre/postemergence rape; assay type: in vivo, Brassica napus
Procedure, shortened: as §1

soybean = assay: Test B pre/postemergence soybean; assay type: in vivo, Glycine max
Procedure, shortened: as §1

sugar beet = assay: Test B pre/postemergence sugar beet; assay type: in vivo, Beta vulgaris
Procedure, shortened: as §1

wheat = assay: Test B pre/postemergence wheat; assay type: in vivo, Triticum aestivum
Procedure, shortened: as §1

wild oat = assay: Test B pre/postemergence wild oat; assay type: in vivo, Avena fatua
Procedure, shortened: as §1

purple nutsedge = assay: Test B pre/postemergence purple nutsedge; assay type: in vivo, Cyperus rotundus
Procedure, shortened: as §1

smallflower flatsedge = assay: Test B flood test smallflower flatsedge; assay type: in vivo, Cyperus difformis
Procedure, shortened: (§2)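 Each value is a visual injury score relative to controls, with 10 meaning complete control and 0 no effect. Evaluation took place twelve to sixteen days after the 2-leaf-stage plants were treated and kept in the greenhouse.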

duck salad = assay: Test B flood test duck salad; assay type: in vivo, Heteranthera limosa
Procedure, shortened: as §2

bamyardgrass = assay: Test B flood test barnyardgrass; assay type: in vivo, Echinochloa crus-galli
Procedure, shortened: as §2

[1] = Postemergence, Rate 125 g/ha, scale 0 to 10, 0 is no effect, 10 is complete control
[2] = Preemergence, Rate 62 g/ha, scale of 0 to 10 where 0 is no effect and 10 is complete control
[3] = Preemergence, Rate 250 g/ha, scale of 0 to 10 where 0 is no effect and 10 is complete control
[4] = Preemergence, Rate 500 g/ha, scale of 0 to 10 where 0 is no effect and 10 is complete control
[5] = Rate 62 g/ha, Postemergence, scale 0 to 10 (0 no effect, 10 complete control)
[6] = Rate 500 g/ha, Postemergence, scale 0 to 10, 0 no effect, 10 complete control
[7] = Rate 250 g/ha, Postemergence, scale of 0 to 10 where 0 is no effect and 10 is complete control
[8] = Rate 62 g/ha, headed Pre-emergence (flood test species), scale 0 to 10 (0 no effect, 10 complete control)
[9] = Rate 125 g/ha, Pre-emergence, flood test species, scale 0 to 10 where 0 is no effect and 10 is complete control
[10] = Rate 250 g/ha, Pre-emergence, flood-test species, scale 0 to 10, 0 is no effect, 10 is complete control
[11] = Rate 500 g/ha, Pre-emergence, flood test species, scale 0 to 10 (0 no effect, 10 complete control)

Compound: Cc1ccc(N(C(=O)n2oc(=O)n(-c3ccc4ccccc4c3)c2=O)C(C)C)cc1 [Compound 334]
- Plant response rating, Bedstraw (bedstraw; [1]): 0
- Bedstraw plant response rating (bedstraw; [2]): 0
- Bedstraw plant response rating (0 to 10 scale) (bedstraw; Preemergence, Rate 125 g/ha): 0
- Bedstraw plant response rating (bedstraw; [3]): 0
- Bedstraw plant response rating (bedstraw; [4]): 0
- Bedstraw plant response rating (bedstraw; [5]): 0
- Plant response rating, Bedstraw (bedstraw; [6]): 0
- Plant response rating, Blackgrass (blackgrass; [1]): 0
- Blackgrass plant response rating (blackgrass; [2]): 0
- Blackgrass plant response rating (0 to 10 scale) (blackgrass; Preemergence, Rate 125 g/ha): 0
- Blackgrass plant response rating (blackgrass; [3]): 0
- Blackgrass plant response rating (blackgrass; [4]): 0
- Blackgrass plant response rating (blackgrass; [5]): 0
- Plant response rating, Blackgrass (blackgrass; [7]): 0
- Plant response rating, Blackgrass (blackgrass; [6]): 0
- Plant response rating, B. signalgrass (surinam grass; [1]): 0
- B. signalgrass plant response rating (surinam grass; [2]): 0
- B. signalgrass plant response rating (0 to 10 scale, 0 is no effect, 10 is complete control) (surinam grass; Preemergence, Rate 125 g/ha): 0
- B. signalgrass plant response rating (surinam grass; [3]): 0
- B. signalgrass plant response rating (surinam grass; [4]): 0
- B. signalgrass plant response rating (surinam grass; [5]): 0
- Plant response rating, B. signalgrass (surinam grass; [7]): 0
- Plant response rating, B. signalgrass (surinam grass; [6]): 0
- Plant response rating, Cocklebur (cocklebur; [1]): 0
- Cocklebur plant response rating (cocklebur; [2]): 0
- Cocklebur plant response rating (0 to 10 scale) (cocklebur; Preemergence, Rate 125 g/ha): 0
- Cocklebur plant response rating (cocklebur; [3]): 0
- Cocklebur plant response rating (cocklebur; [4]): 0
- Cocklebur plant response rating (cocklebur; [5]): 0
- Plant response rating, Cocklebur (cocklebur; [6]): 0
- Plant response rating, Giant foxtail (giant foxtail; [1]): 0
- Giant foxtail plant response rating (giant foxtail; [2]): 0
- Giant foxtail plant response rating (0 to 10 scale) (giant foxtail; Preemergence, Rate 125 g/ha): 0
- Giant foxtail plant response rating (giant foxtail; [3]): 0
- Giant foxtail plant response rating (giant foxtail; [4]): 0
- Giant foxtail plant response rating (giant foxtail; [5]): 0
- Plant response rating, Giant foxtail (giant foxtail; [6]): 0
- Plant response rating, Morningglory (morningglory; [1]): 0
- Morningglory plant response rating (morningglory; [2]): 0
- Morningglory plant response rating (0 to 10 scale) (morningglory; Preemergence, Rate 125 g/ha): 0
- Morningglory plant response rating (morningglory; [3]): 0
- Morningglory plant response rating (morningglory; [4]): 0
- Morningglory plant response rating (morningglory; [5]): 0
- Plant response rating, Morningglory (morningglory; [6]): 0
- Plant response rating, Redroot pigweed (pigweed; [1]): 0
- Redroot pigweed plant response rating (pigweed; [2]): 0
- Redroot pigweed plant response rating (0 to 10 scale) (pigweed; Preemergence, Rate 125 g/ha): 0
- Redroot pigweed plant response rating (pigweed; [3]): 0
- Redroot pigweed plant response rating (pigweed; [4]): 0
- Redroot pigweed plant response rating (pigweed; [5]): 0
- Plant response rating, Redroot pigweed (pigweed; [6]): 0
- Plant response rating, Rape (rape; [1]): 0
- Rape plant response rating (rape; [2]): 0
- Rape plant response rating (0 to 10 scale) (rape; Preemergence, Rate 125 g/ha): 0
- Rape plant response rating (rape; [3]): 0
- Rape plant response rating (rape; [4]): 0
- Rape plant response rating (rape; [5]): 0
- Plant response rating, Rape (rape; [6]): 0
- Plant response rating, Soybean (soybean; [1]): 1
- Soybean plant response rating (soybean; [2]): 0
- Soybean plant response rating (0 to 10 scale) (soybean; Preemergence, Rate 125 g/ha): 0
- Soybean plant response rating (soybean; [3]): 0
- Soybean plant response rating (soybean; [4]): 0
- Soybean plant response rating (soybean; [5]): 1
- Plant response rating, Soybean (soybean; [6]): 2
- Plant response rating, Sugarbeets (sugar beet; [1]): 0
- Sugarbeets plant response rating (sugar beet; [2]): 0
- Sugarbeets plant response rating (0 to 10 scale) (sugar beet; Preemergence, Rate 125 g/ha): 0
- Sugarbeets plant response rating (sugar beet; [3]): 0
- Sugarbeets plant response rating (sugar beet; [4]): 0
- Sugarbeets plant response rating (sugar beet; [5]): 0
- Plant response rating, Sugarbeets (sugar beet; [6]): 0
- Plant response rating, Wheat (wheat; [1]): 0
- Wheat plant response rating (wheat; [2]): 0
- Wheat plant response rating (0 to 10 scale) (wheat; Preemergence, Rate 125 g/ha): 0
- Wheat plant response rating (wheat; [3]): 0
- Wheat plant response rating (wheat; [4]): 0
- Wheat plant response rating (wheat; [5]): 0
- Plant response rating, Wheat (wheat; [6]): 0
- Plant response rating, Wild oats (wild oat; [1]): 0
- Wild oats plant response rating (wild oat; [2]): 0
- Wild oats plant response rating (0 to 10 scale) (wild oat; Preemergence, Rate 125 g/ha): 0
- Wild oats plant response rating (wild oat; [3]): 0
- Wild oats plant response rating (wild oat; [4]): 0
- Wild oats plant response rating (wild oat; [5]): 0
- Plant response rating, Wild oats (wild oat; [6]): 0
- Plant response rating, Nutsedge (purple nutsedge; [1]): 0
- Nutsedge plant response rating (purple nutsedge; [2]): 0
- Nutsedge plant response rating (0 to 10 scale) (purple nutsedge; Preemergence, Rate 125 g/ha): 0
- Nutsedge plant response rating (purple nutsedge; [3]): 0
- Nutsedge plant response rating (purple nutsedge; [4]): 0
- Nutsedge plant response rating (purple nutsedge; [5]): 0
- Plant response rating, Nutsedge (purple nutsedge; [6]): 0
- S. Flatsedge plant response rating (smallflower flatsedge; [8]): 0
- S. Flatsedge plant response rating (smallflower flatsedge; [9]): 0
- S. Flatsedge plant response rating (smallflower flatsedge; [10]): 0
- S. Flatsedge plant response rating (smallflower flatsedge; [11]): 0
- Ducksalad plant response rating (duck salad; [8]): 0
- Ducksalad plant response rating (duck salad; [9]): 0
- Ducksalad plant response rating (duck salad; [10]): 0
- Ducksalad plant response rating (duck salad; [11]): 0
- Barnyardgrass plant response rating (bamyardgrass; [8]): 0
- Barnyardgrass plant response rating (bamyardgrass; [9]): 0
- Barnyardgrass plant response rating (bamyardgrass; [10]): 0
- Barnyardgrass plant response rating (bamyardgrass; [11]): 0
